Data from article PMC9002334 (Virology, 2022).

Legend:
HCoV-229E = test: microbe, parasite or virus in culture; format: cell-based, Human coronavirus 229E
SARS-CoV-2 M^pro [1] = target: T1, SARS-CoV-2 M^pro (Severe acute respiratory syndrome coronavirus 2, UniProt P0DTD1); test: Inhibition assay of the SARS-CoV-2 M^pro activity; format: biochemical
[2] = after the intake of 150 mg in 1 h; ref de Whalley et al., 1990; Olthof et al., 2000; cited from earlier work
SARS-CoV-2 M^pro [3] = target: T1, SARS-CoV-2 M^pro; settings: ref Zhu and Xie, 2020; cited from earlier work

SMILES	Concentration at which inhibition of HCoV-229E replication starts (HCoV-229E) [µM]	Inhibitive effect on the M^pro activity at 100 μM (SARS-CoV-2 M^pro [1])	Inhibition of the SARS-CoV-2 M^pro activity (SARS-CoV-2 M^pro [3])	other results
O=c1c(O[C@@H]2O[C@H](CO)[C@@H](O)[C@H](O)[C@H]2O)c(-c2ccc(O)c(O)c2)oc2cc(O)cc(O)c12 [Isoquercitrin, quercetin-3-O-glycoside]	2.5	–	–	–
C[C@@H]1O[C@@H](OC[C@H]2O[C@@H](Oc3c(-c4ccc(O)c(O)c4)oc4cc(O)cc(O)c4c3=O)[C@H](O)[C@@H](O)[C@@H]2O)[C@H](O)[C@H](O)[C@H]1O [Rutin, rutin]	–	most effectiveness	–	–
O=c1c(O)c(-c2ccc(O)c(O)c2)oc2cc(O)cc(O)c12 [Quercetin, quercetin]	5.0	–	–	Effect on HCoV-229E replication at 2.5 μM (HCoV-229E; Huh-7 cells, 2.5 μM): slightly reduce; Inhibition of HCoV-229E replication at concentration higher than 10 μM (HCoV-229E; Huh-7 cells, higher than 10 μM): strongly inhibit; EC50 (HCoV-229E; Human coronavirus 229E, Huh-7, 24 h, read-out: EC50, inhibition of HCoV-229E replication): 4.88 µM; Quercetin concentration in plasma [2]: 5.0 ± 1.0 µM
Oc1cc(O)c2c(c1)O[C@H](c1ccc(O)c(O)c1)[C@H](O)C2 [(−)-epicatechin]	20	did not inhibit	could not	Inhibitory effect on the M^pro activity (SARS-CoV-2 M^pro [1]; range of concentrations from 0 to 200 μM): did not show an inhibitory effect
O=C(O[C@@H]1Cc2c(O)cc(O)cc2O[C@@H]1c1cc(O)c(O)c(O)c1)c1cc(O)c(O)c(O)c1 [EGCG, epigallocatechin gallate, reference compound]	2.5	–	effectively inhibited	–
